Measured values taken from US8735624B2, “Polymorphic form of CHDMAPP, method of preparation thereof, and pharmaceutical composition comprising same” (Innate Pharma, priority 2008, dated 2014).

Tests used:
[1] = DVS hygroscopicity and moisture measurements; format: physicochemical; conditions: result in words
Method: Moisture sorption isotherms of the crystalline phases were obtained by using a DVS-1 automated water sorption analyzer (Surface Measurements Systems, Alperton, Middlesex, United Kingdom). The reference material was an empty glass pan and the total gas flow was 200 sccm.min^−1 (Standard Cubic Centimeters per minute). Temperature of analysis was 20° C. For each measurement, precisely ca. 15 mg of the sample were weighed in a glass pan beforehand allowed for the tare, then placed in the analyzer.
As a first stage, dry nitrogen (0% R.H) was applied until constant weight of the sample in order to eliminate adsorbed or absorbed water (potential dehydration). Then, mass variations were recorded while R.H. was increased by steps of 10% R.H. The automated analyzer was allowed to start the following step as soon as the mass variation of the sample was less than 5.10^−4 mg.min^−1. The upper limit was adjusted below the deliquescence of the compound and never exceeded 90% R.H.
DVSWin (v 2.18) was used as control and data collection software whereas data processing was performed by using DVS Standard Analysis Suite (v 4.3).
Further parameters used in DVS procedures are as follows:
Protocole Dynamic Vapor Sorption/Appareil ‘Surface Measurements Systems)=
Automated Water Sorption Analyzer’/model: DVS−1
Analysis method: • step mode, • Temperature: 20° C. • step dm/dt<0.0005 (mg/min) • First stage R.H.=0% • Last Stage R.H.=90% • Minimum Stage: 20 min • Maximum Stage: 120 min • Total Gas Flow: 200 • Nitrogen: 200 Bars, H2O<3 ppm, O2<2 ppm, Réf. Nitrogen N50 B50*0 Software—data collection and data processing: • DVSWin v2.18 (control software), • DVS Standard Analysis Suite v4.3 (analysis software).]

[2] = solid phase stability on storage (XRPD); format: physicochemical; conditions: for crystalline structure after storage (XRPD): stored 3 months at 40° C., 75% RH
Method: X-Ray Powder Diffraction measurements were carried out by using a SIEMENS D5005 diffractometer (Bruker analytical X-Ray Systems, D-76187 Karlsruhe, Germany) with a Bragg Brentano geometry, in theta-theta reflection mode. The instrument is equipped with a X-Ray tube (copper anticathode, 40 kV, 30 mA, Kα1 radiation: 1.5406 Å, Kα2 radiation: 1.5444 Å), a nickel filter and a scintillation detector. The diffraction patterns were collected by steps of 0.04° (2-theta) over the angular range 3°-30°, with a counting time of 4 s per step. No internal standard was used but a sample of quartz was analyzed as an external standard. The temperature of the sample was either the room temperature or accurately monitored when heating was required. DIFFRAC PLUS Edit Job software (v. 2.00) was used as control software and data processing was performed by using the Eva software (v. 9.0 and v. 10.0).

[3] = TG/DSC thermal stability; format: physicochemical; conditions: TGA-DSC
Method: The stability range was assessed using Differential Scanning calorimetry (DSC), using a Netzsch STA 449C apparatus, as is described in detail hereinafter, and having a standard deviation of ±0.5° C. The person skilled in the art will appreciate that alternative readings of the melting point may result from the use of other types of DSC equipment and/or the use of other system under conditions different to those described below.
TG/DSC measurements were carried out by using a NETZSCH STA 449C Jupiter Thermogravimetric Analyzer (NETZSCH, D-95100 Selb, Germany) equipped with a low temperature furnace. The purge gas used was helium (gas flow=50 mL/min) and the reference material was an empty aluminum pan without cap. The samples were weighed in open aluminum pans, and then placed in the analyzer. The analyses were performed within various temperature ranges using a 2°.min^−1 heating rate. PROTEUS software was used for the acquisition and data processing (v. 4.7.0).

[4] = ICH stability testing (chemical purity by HPAEC); format: physicochemical; conditions: closed glass vials
Method: The chemical purity of phosphoesters (including the isomeric purity for geometric isomers) is determined using High Performance Anion-Exchange Chromatography (HPAEC) with suppressed conductivity detection. The HPAEC device comprises a DIONEX DX600 system (DIONEX Corporation, Sunnyvale Calif., USA) connected to computer loaded with DIONEX Chromeleon® chromatography software. A DIONEX CD25 conductivity detector is used with an anion self regenerating suppressor (ASRS®-ultra II-4 mm), which is set to either auto-suppression mode or external water mode. The HPAEC column used is a DIONEX Ion Pac® AS11 column (4×250 mm) equipped with an AG11 guard column (4×50 mm). In this procedure, phosphoesters are eluted (as anionic form) from the anion exchange column with a sodium or potassium hydroxide step gradient.
Stability tests of CHDMAPP-Na2,1H2O have been conducted according to ICH guideline Q7a, Section 19.11, under various storage conditions: 5° C., and 25° C./60% RH, both in closed glass vials. Purity has been assessed at regular time intervals (t0, 1, 3, 6 and 9 months) by HPAEC using a Dionex Ion Pac AS11, 4.0×250 mm column and a Dionex Ion Pac AG11, […] and by eluting with a gradient of water and NaOH solution.

[5] = pKa of the acidic functions; format: physicochemical
Description: Each of these acidic functions can be coupled with a cation. Therefore, three stoichiometries of sodium salts of CHDMAPP may be prepared: A monosodium salt, a disodium salt and a trisodium salt.

[6] = stability of CHDMAPP in solution in water; format: physicochemical; conditions: in solution in water at 5% in weight, 55° C.
Description: The crystalline phase thus provides a dramatic improvement of the stability and of the storage capabilities of the drug product.

[7] = tested on: γδ T cells; conditions: activator of γδ T cells; times higher than BrHPP; cited from earlier work

SMILES: CC(=CCCP(=O)([O-])OP(=O)([O-])[O-])CO.[Na+].[Na+].[Na+] [trisodium]
- hygroscopicity [1]: very hygroscopic solid

SMILES: C/C(=C\CCP(=O)([O-])OP(=O)(O)O)CO.C/C(=C\CCP(=O)([O-])OP(=O)(O)O)CO.[Na+].[Na+] [CHDMAPP-Na2,0H2O, anhydrous (2E)-1-hydroxy-2-methylpent-2-enyl-pyrophosphonate disodium]
- hygroscopicity [1]: hygroscopic
- hygroscopicity ([1]; listed as anhydrous salt): somewhat hygroscopic
- crystalline structure after storage (XRPD) [2]: completely modified

SMILES: C/C(=C\CCP(=O)(O)OP(=O)(O)O)CO [CHDMAPP-Na2,1H2O, (2E)-1-hydroxy-2-methylpent-2-enyl-pyrophosphonate disodium monohydrate]
- hygroscopicity [1]: great non-hygroscopicity
- temperature up to which compound is stable (onset of endothermic dehydration peak) ([3]; listed as monohydrate disodium salt): 115 °C
- temperature up to which compound is stable (onset of endothermic dehydration peak) ([3]; disodium monohydrate): 115.7 °C
- Purity ([4]; storage 5° C., 1 month): 99.1%
- Purity ([4]; storage 5° C., 3 months): 99.2%
- Purity ([4]; storage 5° C., 6 months): 98.8%
- Purity ([4]; storage 5° C., 9 months): 98.9%
- Purity ([4]; storage 5° C., t 0): 99.3%
- Purity ([4]; storage 25° C./60% R.H., 1 month): 99.2%
- Purity ([4]; storage 25° C./60% R.H., 3 months): 99.1%
- Purity ([4]; storage 25° C./60% R.H., 6 months): 98.7%
- Purity ([4]; storage 25° C./60% R.H., 9 months): 98.9%
- Purity ([4]; storage 25° C./60% R.H., t 0): 99.3%
- spontaneous phase transformation on storage ([2]; after more than 6 months, 25° C., 60% RH): does not observe any spontaneous phase transformation
- crystalline structure after storage (XRPD) [2]: has not been modified

SMILES: C/C(=C\CCP(=O)(O)OP(=O)(O)O)CO [CHDMAPP, (2E)-1-hydroxy-2-methylpent-2-enyl-pyrophosphonate]
- pKa of the weak acidic function ([5]; one function, weak pKa): 7.1
- pKa of the two strong acidic functions ([5]; two functions, strong pKa): 2.1
- half-life [6]: 62.4 h
- in vitro activity relative to BrHPP (Phosphostim) [7]: approximately 100 times
